Patent publication US20220000841A1, “INHIBITORS OF METALLO-BETA-LACTAMASES” (CENTRE NATIONAL DE LA RECHERCHE SCIENTIFIQUE, priority 2018, published 2022)
Like-named read-outs stand apart in the source and are kept apart here.

Legend:
VIM-2 = VIM-2 (Escherichia coli, UniProt Q5U7L7); experiment: Enzymatic assay for determination of inhibition constants, reporter substrate method, purified VIM-2; format: biochemical;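 note: purified VIM-2 hydrolysing a reporter substrate (imipenem, meropenem, cefotaxime or nitrocefin), reaction rate read as absorbance change, HEPES 50 mM at pH 7.5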
Procedure: (§1) The reaction rate was measured as the variation of absorbance observed upon substrate hydrolysis in a UV-Vis spectrophotometer or microplate reader at a wavelength of 300 nm (imipenem, meropenem), 260 nm (cefotaxime) or 482 nm (nitrocefin) in 50 mM HEPES buffer (pH 7.5) and in the presence of a purified MBL enzyme (such as VIM-1, VIM-2, VIM-4, NDM-1 and IMP-1, at a final concentration ranging 1-70 nM).
(§2) The inhibition constants (Ki) were determined on the basis of a model of competitive inhibition by analyzing the dependence of the ratio v0/vi (v0, hydrolysis velocity in the absence of inhibitor; vi, hydrolysis velocity in the presence of inhibitor) as a function of [I] as already described [Docquier J. D., Lamotte-Brasseur J., Galleni M., Amicosante G., Frère J. M., Rossolini G. M. (2003) J. Antimicrob. […] The slope of the plot of v0/vi vs [I], which corresponds to Km^S/(Km^S+[S])Ki (where Km^S is the Km value of the reporter substrate and [S] its concentration in the reaction mixture) and allowed the calculation of the Ki value. Alternatively, a Dixon plot analysis was carried out, by measuring the initial hydrolysis rates in the presence of variable concentrations of inhibitor and substrate.

VIM-4 = VIM-4 (Pseudomonas aeruginosa, UniProt Q8KRJ3); experiment: Enzymatic assay for determination of inhibition constants, reporter substrate method, purified VIM-4; format: biochemical; settings: at 100 μM (maximal tested concentration);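 note: purified VIM-4 (1-70 nM) in 50 mM HEPES pH 7.5, reporter substrate hydrolysis rate tracked by absorbance change (nitrocefin 482 nm, imipenem or meropenem 300 nm, cefotaxime 260 nm)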
Procedure: as §1, §2

NDM-1 = NDM-1 (Klebsiella pneumoniae, UniProt C7C422); experiment: Enzymatic assay for determination of inhibition constants, reporter substrate method, purified NDM-1; format: biochemical; settings: for Ki: isolated MBL, competitive inhibition model;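 for all read-outs here: purified enzyme activity followed as absorbance change from reporter substrate hydrolysis on a UV-Vis spectrophotometer or plate reader, 50 mM HEPES pH 7.5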
Procedure: as §1, §2

IMP-1 = IMP-1 (Serratia marcescens, UniProt P52699); experiment: Enzymatic assay for determination of inhibition constants, reporter substrate method, purified IMP-1; format: biochemical; settings: for Ki: isolated MBL, competitive inhibition model; for % inhibition IMP-1: at 200 μM (maximal tested concentration);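 for all read-outs here: purified IMP-1 (1-70 nM) hydrolysing a reporter substrate, initial rates followed as absorbance change at 260, 300 or 482 nm in 50 mM HEPES pH 7.5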
Procedure: as §1, §2

VIM-1 = VIM-1 (Pseudomonas aeruginosa, UniProt A0A0F7KYQ8); experiment: Enzymatic assay for determination of inhibition constants, reporter substrate method, purified VIM-1; format: biochemical; settings: isolated MBL, competitive inhibition model;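 note: initial hydrolysis rates of a reporter β-lactam (imipenem, meropenem, cefotaxime or nitrocefin) followed by absorbance change, purified enzyme at 1–70 nM in 50 mM HEPES pH 7.5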
Procedure: as §1, §2

[1] = isolated MBL, competitive inhibition model, read-out: Ki VIM-2
[2] = at 200 μM (maximal tested concentration)
[3] = at 100 μM (maximal tested concentration)

Chain of IMP-1 (P52699 19-246, looked up, species assumed): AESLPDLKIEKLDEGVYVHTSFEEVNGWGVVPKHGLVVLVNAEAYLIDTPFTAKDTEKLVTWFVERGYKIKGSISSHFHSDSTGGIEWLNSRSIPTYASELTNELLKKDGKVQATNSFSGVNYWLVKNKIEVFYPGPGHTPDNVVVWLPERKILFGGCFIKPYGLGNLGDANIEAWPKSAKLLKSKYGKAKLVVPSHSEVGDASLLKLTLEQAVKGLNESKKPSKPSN
Chain of NDM-1 (C7C422 29-270, looked up, species assumed): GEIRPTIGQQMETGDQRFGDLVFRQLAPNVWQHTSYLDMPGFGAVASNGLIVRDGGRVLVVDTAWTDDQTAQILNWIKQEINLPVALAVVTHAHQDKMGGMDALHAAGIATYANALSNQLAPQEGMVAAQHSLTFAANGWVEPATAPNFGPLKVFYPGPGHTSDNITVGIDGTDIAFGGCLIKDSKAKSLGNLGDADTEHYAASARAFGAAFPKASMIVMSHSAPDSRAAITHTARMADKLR

Row | Ki (VIM-1) [µM] | Ki (VIM-2; as listed in Table 2, read-out: Ki on VIM-2) [µM] | SMILES | Ki (VIM-2; [1]) [µM] | % inhibition VIM-4 (VIM-4) [% at 100 μM] | Ki (NDM-1) [µM] | Ki (IMP-1) [µM] | melting point [°C] | % inhibition IMP-1 (IMP-1) [% at 200 μM] | % inhibition VIM-2 (VIM-2; [2]) [% at 200 μM] | % inhibition NDM-1 (NDM-1; [2]) [% at 200 μM] | % inhibition NDM-1 (NDM-1; [3]) [% at 100 μM] | % inhibition VIM-2 (VIM-2; [3]) [% at 100 μM]
1 |  |  | O=C(O)CC1(Cn2c(-c3ccccc3)n[nH]c2=S)CCCCC1 [Compound 17, 2-{1-[(3-phenyl-5-sulfanylidene-4,5-dihydro-1H-1,2,4-triazol-4-yl)methyl]cyclohexyl}acetic acid] | 1 to 10 | 60 | > 100 | > 100 | 80 to 81 |  |  |  |  | 
2 |  |  | O=C(O)CCCCn1c(-c2ccc3ccccc3c2)n[nH]c1=S [Compound 30, 5-[3-(naphthalen-2-yl)-5-sulfanylidene-4,5-dihydro-1H-1,2,4-triazol-4-yl]pentanoic acid] | 1 to 10 | 80 | > 100 |  | 170 to 171 | 60 |  |  |  | 
3 |  |  | CC(C)(C)OC(=O)NC(CCCn1c(-c2ccccc2)n[nH]c1=S)C(=O)O (stereo not drawn) [Compound 25, 2-{[(tert-butoxy)carbonyl]amino}-5-(3-phenyl-5-sulfanylidene-4,5-dihydro-1H-1,2,4-triazol-4-yl)pentanoic acid] | 1 to 10 | 85 | > 100 | > 100 | 105 to 106 |  |  |  |  | 
4 |  |  | CCCCCCn1c(-c2ccccc2)n[nH]c1=S [Compound 26, 4-hexyl-3-phenyl-4,5-dihydro-1H-1,2,4-triazole-5-thione] | 1 to 10 | 85 | > 100 | > 100 | 98 to 99 |  |  |  |  | 
5 | > 100 |  | O=C(O)c1ccccc1CNn1c(-c2ccc3ccccc3c2)n[nH]c1=S [Compound 16, 2-({[3-(naphthalen-2-yl)-5-sulfanylidene-4,5-dihydro-1H-1,2,4-triazol-4-yl]amino}methyl)benzoic acid] | 1 to 10 |  | > 100 | > 100 | 213 to 214 |  |  |  |  | 
6 |  |  | O=C(O)CCCn1c(-c2ccc3ccccc3n2)n[nH]c1=S [Compound 50, 4-[3-(Quinolin-2-yl)-5-sulfanylidene-4,5-dihydro-1H-1,2,4-triazol-4-yl]butanoic acid] |  | 85 |  | > 100 | 238 to 239 |  | 80 | 50 |  | 
7 |  |  | COc1ccc(O)c(-c2n[nH]c(=S)n2CCCCC(=O)O)c1 [Compound 29, 5-[3-(2-hydroxy-5-methoxyphenyl)-5-sulfanylidene-4,5-dihydro-1H-1,2,4-triazol-4-yl]pentanoic acid] |  | 90 | > 100 | > 100 | 155 to 156 |  | 60 |  |  | 
8 | > 100 | < 1 | O=C(O)c1ccccc1CCn1c(-c2ccccc2)n[nH]c1=S [Compound 1, 2-[2-(3-phenyl-5-sulfanylidene-4,5-dihydro-1H-1,2,4-triazol-4-yl)ethyl]benzoic acid] | < 1 |  | > 100 | > 100 | 220 to 221 |  |  |  |  | 
9 |  |  | Cc1nnsc1-c1n[nH]c(=S)n1CCc1ccccc1C(=O)O [Compound 23, 2-{2-[3-(4-methyl-1,2,3-thiadiazol-5-yl)-5-sulfanylidene-4,5-dihydro-1H-1,2,4-triazol-4-yl]ethyl}benzoic acid] | > 100 |  | > 100 |  | 195 to 196 | 95 |  |  |  | 
10 |  |  | O=C(O)C1CCC(Cn2c(-c3ccccc3)n[nH]c2=S)CC1 (stereo not drawn) [Compound 34, 4-[(3-phenyl-5-sulfanylidene-4,5-dihydro-1H-1,2,4-triazol-4-yl)methyl]cyclohexane-1-carboxylic acid] |  | 90 | > 100 | > 100 | 207 to 208 |  | 75 |  |  | 
11 |  |  | O=C(O)CCCCCn1c(-c2ccccc2)n[nH]c1=S [Compound 45, 6-(3-Phenyl-5-sulfanylidene-4,5-dihydro-1H-1,2,4-triazol-4-yl)hexanoic acid] | < 1 | 85 |  | > 100 | 136 to 137 |  |  |  | 55 | 
12 |  |  | [N-]=[N+]=NCCn1c(-c2ccccc2)n[nH]c1=S [Compound 49, 4-(2-Azidoethyl)-3-phenyl-4,5-dihydro-1H-1,2,4-triazole-5-thione] | > 100 |  | > 100 |  | 108 to 109 | 90 |  |  |  | 
13 |  |  | COc1cccc(-c2n[nH]c(=S)n2CCCC(=O)O)c1 [Compound 24, 4-[3-(3-methoxyphenyl)-5-sulfanylidene-4,5-dihydro-1H-1,2,4-triazol-4-yl]butanoic acid] |  | 85 | > 100 | > 100 | 159 to 160 |  | 70 |  |  | 
14 |  |  | O=C(O)C1CCCC(n2c(-c3ccccc3)n[nH]c2=S)C1 (stereo not drawn) [Compound 47, 3-(3-Phenyl-5-sulfanylidene-4,5-dihydro-1H-1,2,4-triazol-4-yl)cyclohexane-1-carboxylic acid] |  | 70 | > 100 | > 100 | 234 to 235 |  |  |  |  | 60
15 |  |  | CCCCn1c(-c2ccccc2)n[nH]c1=S [Compound 32, 4-butyl-3-phenyl-4,5-dihydro-1H-1,2,4-triazole-5-thione] | 1 to 10 | 75 | > 100 | 10 to 100 | 128 to 129 |  |  |  |  | 
16 |  |  | COc1cccc(-c2n[nH]c(=S)n2CCc2ccccc2C(=O)O)c1 [Compound 22, 2-{2-[3-(3-methoxyphenyl)-5-sulfanylidene-4,5-dihydro-1H-1,2,4-triazol-4-yl]ethyl}benzoic acid] | < 1 | 80 | > 100 | > 100 | 197 to 198 |  |  |  |  | 
17 |  |  | FC(F)(F)c1cc(SCCn2c(-c3ccccc3)n[nH]c2=S)c2ccccc2n1 [Compound 28, 3-phenyl-4-(2-{[2-(trifluoromethyl)quinolin-4-yl]sulfanyl}ethyl)-4,5-dihydro-1H-1,2,4-triazole-5-thione] | > 100 |  | 10 to 100 | > 100 | 184 to 185 |  |  |  |  | 
18 |  |  | O=C(O)c1ccccc1CCn1c(-c2ccc(Cl)s2)n[nH]c1=S [Compound 27, 2-{2-[3-(5-chlorothiophen-2-yl)-5-sulfanylidene-4,5-dihydro-1H-1,2,4-triazol-4-yl]ethyl}benzoic acid] | 1 to 10 | 85 | > 100 | > 100 | 240 to 241 |  |  |  |  | 
19 |  |  | O=C(O)c1ccccc1CCn1c(C23CC4CC(CC(C4)C2)C3)n[nH]c1=S [Compound 35, 2-{2-[3-(adamantan-1-yl)-5-sulfanylidene-4,5-dihydro-1H-1,2,4-triazol-4-yl]ethyl}benzoic acid] | 1 to 10 | 55 | > 100 | > 100 | > 250 |  |  |  |  | 
